# According to patent publication US20210353595A1, “USE OF MELATONIN IN PREPARATION OF MEDICAMENT FOR INHIBITING AND/OR KILLING BACTERIUM” (priority 2020, published 2021):
# How the values were obtained:
# Pasteurella multocida [1] = assay: Bacteriostatic activity, bacterial growth curve (OD600); type: cell-based; conditions: MT 1, 1.5 and 2 mg/mL (lower than MBC); OD600 every 2 hours; FIG. 1
# Procedure: In order to further verify the bacteriostatic activity of melatonin against Pasteurella multocida, the bacterial growth curve was determined in view of an increase of melatonin concentration. […] Then the bacteria were cultured in a shaker at a constant temperature of 37° C. at 220 rpm, and the bacterial culture was determined for OD600 every 2 hours with an ultraviolet spectrophotometer to detect the effect of melatonin on the bacterial growth curve. Each experiment was carried out for three times, and each group was set in triplicate.
# Pasteurella multocida [2] = assay: Killing bacteria by melatonin above MBC (OD600, living bacteria count); type: cell-based; conditions: for time to kill all bacteria: FIGS. 2 and 3
# Procedure: Into 100 mL of fresh and sterile Martin broth medium, 1 mL of Pasteurella multocida (1×10^9 CFU) at the logarithmic growth stage was added. The bacteria were cultured in a constant-temperature shaker under conditions of 37° C. and 220 rpm for 8 hours. […] After the addition of MT, the bacterial culture was continuously measured for OD600 every 20 minutes to depict a growth curve under the action of melatonin at a concentration higher than the MBC. At the same time, 100 μL of the bacterial culture was evenly coated on a Martin agar plate, and incubated at 37° C. for 24 h so as to calculate the number of living bacteria for bacterial counting.
# Pasteurella multocida [3] = assay: Leakage of bacterial cell contents; type: cell-based; conditions: MT 1-10 mg/mL, 12 h
# Procedure: 1 mL of Pasteurella multocida (1×10^9 CFU) at the logarithmic growth stage was added into 100 mL of fresh and sterile Martin broth medium containing different concentrations (1 mg/mL, 2 mg/mL, 3 mg/mL, 4 mg/mL, 6 mg/mL, 8 mg/mL and 10 mg/mL) of MT. Melatonin-free DMSO was used as a solvent control group, ampicillin (100 μg/mL) was used as a positive control group, and bacterial cells were cultured in a shaker at 37° C. and 220 rpm for 12 h. Thereafter, 1 mL of the bacterial solution was taken and centrifuged at 3000 r/min for 10 minutes, and the supernatant and precipitated cells were collected, respectively. At the same time, 2.5 mmol/mL of o-nitrophenyl-β-D-galactopyranoside (ONPG) and Pasteurella multocida were added to detect β-galactosidase. The concentrations of protein, alkaline phosphatase (AKP) and reducing sugar in the supernatant were determined sequentially using respective determination kits. The β-galactosidase in the supernatant was determined by measuring the optical density at 420 nm (OD420). Each experiment was carried out for three times, and each group was set in triplicate.
# P. multocida cells = assay: SEM and TEM morphology of bacterial cells; type: cell-based, Pasteurella multocida; conditions: MT 1, 2 or 3 mg/mL, 8, 12 or 16 hours
# Procedure: The effect of melatonin on the morphologies of P. multocida cells were evaluated employing SEM and TEM. 1 mL of fresh Pasteurella multocida (1×10^9 CFU) at the logarithmic growth stage was added into 100 mL of fresh Martin liquid medium containing different concentrations (1, 2 or 3 mg/mL) of MT. MT-free DMSO was used as a solvent control group and ampicillin (100 μg/mL) was used as a positive control group. All cultures were shaken at 220 rpm in a shaker at 37° C. for 8 hours, 12 hours or 16 hours. The bacterial samples were centrifuged at 3000 r/min for 10 minutes, the supernatant was removed, and cells were collected and washed with PBS for 3 times. Then the cells were fixed with a fixation solution of 2.5% fresh glutaraldehyde for 6 hours, and washed with PBS for 3 times, each time for 10 minutes. Subsequently, the SEM samples were dehydrated with 50%, 70%, 80% and 90% ethanol for 15 minutes respectively, and then dehydrated with 100% ethanol for 3 times, each time for 30 minutes. Ethanol was removed by washing with tert-butyl alcohol for three times, each time for 30 minutes. The samples were dried by a freeze dryer and plated with 10 nm of gold film by an ion sputtering device. The samples were examined using a field scanning electron microscope (FESEM, Hitch SU8010).
# The TEM samples were fixed with 1%-2% […] for 2-3 hours, and washed with […] 3 times, each time for 10 minutes. The samples were dehydrated with 30%, 50%, 70%, 80% and 90% ethanol for 20 minutes respectively, and then dehydrated with 100% ethanol 3 times, each time for 30 minutes. Ethanol was replaced with acetone three times, each time for 30 minutes. The bacterial samples were placed on a copper grid with a formvar membrane, and negatively stained with phosphotungstic acid (2% v/v, pH=6.7). The surface area of the sample was less than 0.2 mm×0.2 mm, and slice thickness was between 50 and 90 nm (Lycra UC7). The samples were detected by TEM (Hitachi H-7650) at 80 kV, and photographs of the samples were taken by a Gatan832 CCD camera (Gatan). […]
# [4] = test system: citrate synthase in Klebsiella pneumoniae; assay: Citrate synthase activity of bacteria after treatment; type: cell-based; conditions: MT 1-3 mg/mL, 12 h, FIG. 28
# Procedure: (§1) Further, 1 mL of Klebsiella pneumoniae, Pseudomonas aeruginosa, Diplococcus pneumoniae and Streptococcus pneumoniae at the logarithmic growth stage was added into 100 mL of fresh and sterile Martin broth liquid medium containing different concentrations of melatonin and citric acid (MT-1 mg/mL, MT-2 mg/mL, MT-3 mg/mL, CA-1 mg/mL, CA-2 mg/mL, CA-3 mg/mL, MT-1 mg/mL-CA-1 mg/mL, MT-2 mg/mL-CA-2 mg/mL, MT-3 mg/mL-CA-3 mg/mL) added was. Melatonin-free DMSO was used as the solvent control group, and the bacterial cells were cultured in a constant-temperature shaker at 37° C. and 220 rpm for 12 h. Thereafter, 1 mL of the bacterial solution was pipetted and centrifuged at 3000 r/min for 10 minutes. The bacterial cells were then collected and determined for citrate synthase activity according to the protocol of the instructions for the kit. Each experiment was repeated three times, and each group was set in triplicate.
# [5] = molecular target: T1, citrate synthase in Pseudomonas aeruginosa (Pseudomonas aeruginosa, UniProt P14165); assay: as above; type: cell-based; conditions: MT 1-3 mg/mL, 12 h, FIG. 28
# T1 construct: The bacterial cells were then collected and determined for citrate synthase activity according to the protocol of the instructions for the kit; endogenous in cells; host or cells: Pseudomonas aeruginosa culture
# Procedure: as §1
# T1 sequence (P14165 whole entry): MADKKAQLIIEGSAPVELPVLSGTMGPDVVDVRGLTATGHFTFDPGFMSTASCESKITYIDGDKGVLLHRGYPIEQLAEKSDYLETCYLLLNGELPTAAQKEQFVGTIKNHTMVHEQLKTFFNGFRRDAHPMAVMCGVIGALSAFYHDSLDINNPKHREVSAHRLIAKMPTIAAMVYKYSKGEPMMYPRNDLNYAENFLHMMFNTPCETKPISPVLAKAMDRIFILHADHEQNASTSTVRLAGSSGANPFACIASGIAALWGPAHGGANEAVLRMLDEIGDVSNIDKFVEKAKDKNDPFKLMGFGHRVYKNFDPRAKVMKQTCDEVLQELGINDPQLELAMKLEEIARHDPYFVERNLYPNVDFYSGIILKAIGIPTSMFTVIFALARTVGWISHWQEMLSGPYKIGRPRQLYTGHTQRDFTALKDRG
compound,measurement,setting,value
"COc1ccc2[nH]cc(CCNC(C)=O)c2c1 [melatonin, N-acetyl-5-methoxytryptamine]","bacterial growth (growth curve, OD600)",Pasteurella multocida [1],significantly inhibits bacterial growth
same,time to kill all bacteria,"Pasteurella multocida [2]; 4 mg/mL of melatonin, added after 8 hours culture",10 h
same,bactericidal effect,"Pasteurella multocida [2]; concentration higher than the MBC (4, 8, 10 mg/mL)",significant bactericidal effect in a dose-dependent manner
same,time to kill all bacteria,"Pasteurella multocida [2]; higher concentration of melatonin (8, 10 mg/mL)",4 h
same,activity of extracellular β-galactosidase,"Pasteurella multocida [3]; OD420, FIG. 7",increase
same,content of extracellular proteins,"Pasteurella multocida [3]; supernatant, FIG. 4",increase
same,content of extracellular alkaline phosphatase,"Pasteurella multocida [3]; supernatant, FIG. 6",increase
same,content of extracellular reducing sugar,"Pasteurella multocida [3]; supernatant, FIG. 8",increase
same,activity of extracellular ATPase,Pasteurella multocida [3]; FIG. 5,increase
same,cell morphology in SEM analysis,P. multocida cells; FIG. 10,"many holes passing through the OM, peptidoglycan (PG) layers and CM"
same,cell morphology in TEM image,P. multocida cells; FIG. 11,obvious cytoplasmic vacuolization
same,enzyme activity of citrate synthase,[4],significantly reduces
same,enzyme activity of citrate synthase,[5],significantly reduces
